From patent EP4458358A1, “PYRIDAZINE COMPOUNDS FOR ANTIFIBROTIC THERAPY” (Tietze Chemical Consulting UG, priority 2023, dated 2024)

What was measured:
Format in all cases: cell-based
GM637 = test: ELISA of secreted pro-collagen I alpha 1 (Type I Collagen) from human dermal fibroblasts GM637
Experimental: (§1) Compounds reconstitution and stock solution: Prior to treatment, DMSO was diluted in PMS until 0,1% DMSO was made. Each compound was solved in 0,1% DMSO (3: 2,5 mg/mL, 1: 2.5 mg/mL, 10: 1 mg/mL, 5: 1mg/mL, 7: 0,6 mg/mL, 16: 1 mg/mL 17: 1 mg/mL, 44: 0,6 mg/mL, 36: 1mg/mL.
(§2) Next the different stock solution with 150 µg and 250 µg of each compound per 1 ml culture solution was made by adding the 0,1% DMSO compound solution in the right amount to culture solution (DMEM with 10% FCS and 1% penicillin-streptomycin).
(§3) Three different cell lines were used for the experiments. GM637 is an immortalized cell line originated from human skin fibroblasts, bought in 2001, UKE1 and […] are cell lines originated from human dermal fibroblasts (dog ear) nurtured from patients, between 60 and 80 years old being completely anonymized at the clinic for dermatology, Rostock.
(§4) The cells lines were thawed and were cultured in Dulbeco's modified Eagel's medium (DMEM, Gibcon, USA) supplemented with 10% fetal bovine serum (FBS, Gibco, Germany) and 1% penicillin-streptomycin (PS, Gibco, USA) at 37 °C in a humidified atmosphere with 5% CO2 until a sufficient number of cells were culture in T75 culture bottles. After reaching a confluence of 80% to 90%, the cells were separated using trypsin and counted. Next 100.000 cells were planted in each well of a 6 well plate in replicates, washed and the DMEM solution with 150 µg and 250 µg/ml substance/DMEM and DMEM with no substance as control was added.
(§5) After 48h and after 72h 100 µl supernatant of each well was taken, labelled and frozen at -20° degree Celsius. Prior to perform ELISA the medium was depending on the cell line diluted 1:50 or 1:100 with PBS, otherwise the concentration of collagen fibers was too high to be measured.
(§6) The media containing the secretion of the different human dermal fibroblasts GM637, UKE1, and HRO159N were collected after 48h and 72h treatment. Secretion of pro-collagen 1 was assessed with human pro-collagen I alpha 1 DuoSet ELISA (R&D systems, USA) To prepare the Elisa plate, Human pro-Collagen I a capture antibody was diluted in ELISA plate-coating buffer at 4µg/mL working concentration. 100 µl of diluted Capture antibody was added to 96-well microplates and incubated over night at room temperature. After three times washing with Wash Buffer, microplates were blocked by adding 300 µl of Reagent Diluent for 1 hour at room temperature. To proceed the ELISA Human pro-collagen I α1 Standards were diluted in Reagent Diluent (range between 31,3 pg/mL - 2000 pg/mL) and 100 µl of standards or conditioned mediums were added to designated wells. Microplates were incubated at room temperature for 2 hours. Human Pro-collagen I α1 Detection Antibody was prepared in Reagent Diluent at […] working concentration and 100 µl of diluted Detection Antibody was applied for 2 hours at room temperature after extensive washing. Then, working solution of Streptavidin-HRP with Reagent Diluent was prepared by diluting 1:40 and added into each well. After 20 minutes at room temperature incubation, microplates were washed and applied with 100 µl of Substrate Solution for 20 minutes followed by Stop Solution after washing. Finally, signals were measured at 450 nm absorbance by PHomo Microplate Reader (Autobio, China) The amount of pro-collagen 1 was quantified by extrapolating the signal into a linear range of a pro-collagen 1 standard curve. Screening compounds were typically tested at concentration of 150 and 250 µg/mL. The dose response data for each compound and the different cell lines were obtained by nonlinear regression analysis using Prism 9 software (GraphPad, La Jolla, USA).

UKE1 = test: ELISA of secreted pro-collagen I alpha 1 (Type I Collagen) from human dermal fibroblasts UKE1
Experimental: as §1, §2, §3, §4, §5, §6

HRO159N = test: ELISA of secreted pro-collagen I alpha 1 (Type I Collagen) from human dermal fibroblasts HRO159N; conditions: 250 µg
Experimental: as §1, §2, §3, §4, §5, §6

MRCVI = test: ELISA of secreted pro-collagen I alpha 1 (Type I Collagen) from human lung fibroblast MRCVI
Experimental: as §1, §2
As cell line MRCV1 was used, which is an immortalized cell line originated from human lung fibroblast, bought in 2001.
as §4, with “cell line was” for “cells lines were”, “and” for “and were”
as §5
The medium containing the secretion of the human lung fibroblast MRCVI was collected after 48h and 72h treatment. Secretion of pro-collagen 1 was assessed with human pro-collagen I alpha 1 DuoSet ELISA (R&D systems, USA) To prepare the Elisa plate, Human pro-Collagen I a capture antibody was diluted in ELISA plate-coating buffer at 4µg/mL working concentration. 100 µl of diluted Capture antibody was added to 96-well microplates and incubated over night at room temperature. After three times washing with Wash Buffer, microplates were blocked by adding 300 µl of Reagent Diluent for 1 hour at room temperature. To proceed the ELISA Human pro-collagen I α1 Standards were diluted in Reagent Diluent (range between 31,3 pg/mL - 2000 pg/mL) and 100 µl of standards or conditioned mediums were added to designated wells. Microplates were incubated at room temperature for 2 hours. Human Pro-collagen I α1 Detection Antibody was prepared in Reagent Diluent at […] working concentration and 100 µl of diluted Detection Antibody was applied for 2 hours at room temperature after extensive washing. Then, working solution of Streptavidin-HRP with Reagent Diluent was prepared by diluting 1:40 and added into each well. After 20 minutes at room temperature incubation, microplates were washed and applied with 100 µl of Substrate Solution for 20 minutes followed by Stop Solution after washing. Finally, signals were measured at 450 nm absorbance by PHomo Microplate Reader (Autobio, China) The amount of pro-collagen 1 was quantified by extrapolating the signal into a linear range of a pro-collagen 1 standard curve. Screening compounds were typically tested at concentration of 150 and 250 µg/mL. The dose response data for each compound and the different cell lines were obtained by nonlinear regression analysis using Prism 9 software (GraphPad, La Jolla, USA).

COc1nn2c(C)nnc2c2ccccc12 [Compound 3, 6-Methoxy-3-methyl-1,2,4-triazolo[3,4-a]phthalazine]
collagen reduction percentage in comparison to the standard (100 %) (GM637; 48h, 150 µg): 89% | collagen reduction percentage in comparison to the standard (100 %) (GM637; 48h, 250 µg): 50% | collagen reduction percentage in comparison to the standard (100 %) (GM637; 72 h, 150 µg): 37% | collagen reduction percentage in comparison to the standard (100 %) (GM637; 72 h, 250 µg): 32% | collagen reduction percentage in comparison to the standard (100 %) (UKE1; 48h, 150 µg): 96% | collagen reduction percentage in comparison to the standard (100 %) (UKE1; 48h, 250 µg): 77% | collagen reduction percentage in comparison to the standard (100 %) (UKE1; 72 h, 150 µg): 71% | collagen reduction percentage in comparison to the standard (100 %) (UKE1; 72 h, 250 µg): 52% | collagen reduction percentage in comparison to the standard (100 %) (HRO159N; 48h): 82% | collagen reduction percentage in comparison to the standard (100 %) (HRO159N; 72 h): 77% | collagen reduction percentage in comparison to the standard (100 %) (MRCVI; 48h, 150 µg): 35% | collagen reduction percentage in comparison to the standard (100 %) (MRCVI; 48h, 250 µg): 11% | collagen reduction percentage in comparison to the standard (100 %) (MRCVI; 72 h, 150 µg): 17% | collagen reduction percentage in comparison to the standard (100 %) (MRCVI; 72 h, 250 µg): 5%
